Measured values from patent publication US7026161B2, “Lactobacillus sp. strain and use thereof” (Sesang Life Science, Inc., priority 2001, dated 2006).

System: Lactobacillus paracasei viro-01
Assay: Antibiotic sensitivity test (disc)
Assay type: cell-based
Details: for growth-inhibition zone: Mueller Hinton agar, 37° C., 16 hours; for resistance of Lactobacillus paracasei viro-01 to the antibiotic: judged by the zone limits printed per antibiotic (resistant/moderate/sensitive)
Procedure: Antibiotic sensitivity of the Lactobacillus paracasei viro-01 of the present invention were tested. The antibiotic resistance test was carried out by Scientec Lab Center Co., Ltd.(Daejeon city, Daedeok, Korea) approved by the KFDA.
Antibiotics used were Cephalexin, Flumequine, Furazolidone, Gentamycin, Spectinomycin, Tetracycline, Tiamulin, Neomycin, Chloramphenicol and Kanamycin, and test procedures were as described below.
5 to 6 colonies of cultured Lactobacillus paracasei viro-01 were selected, inoculated into bacterial growth medium composed of peptone 10.0 g/L, beef extract 10.0 g/L, yeast extract 5.0 g/L, glucose 20.0 g/L, Tween 80 1.0 mL/L, K2HPO4 2.0 g/L, sodium acetate 5.0 g/L, triammonium citrate 2.0 g/L, MgSO4.7H2O 0.2 g/L and MnSO4.4H2O 0.2 g/L and incubated at 37° C. Turbidity of said culture was adjusted to MacFarland No. 0.5, and used as test bacteria solution. Said test bacteria solution was smeared on Mueller Hinton agar plates and antibiotic sensitivity test disc was added thereto and incubated at 37° C. for 16 hours.
Antibiotic sensitivity was determined by measuring the area of growth inhibition surrounding each test disc.

| Compound | growth-inhibition zone (content 10 μg/disc) [mm] | resistance of Lactobacillus paracasei viro-01 to the antibiotic (content 10 μg/disc) | further results |
| --- | --- | --- | --- |
| O=C(N[C@H](CO)[C@H](O)c1ccc([N+](=O)[O-])cc1)C(Cl)Cl [chloramphenicol, Chloramphenicol] | – | – | growth-inhibition zone (content 30 μg/disc): 30 mm; resistance of Lactobacillus paracasei viro-01 to the antibiotic (content 30 μg/disc): none; resistance of Lactobacillus paracasei viro-01 to the antibiotic (content 30 μg/disc, listed as Chloramphenicol): no resistance |
| CC1CCc2cc(F)cc3c(=O)c(C(=O)O)cn1c23 (centres unmarked) [flumequine, Flumequine] | 0 | strong | resistance of Lactobacillus paracasei viro-01 to the antibiotic (content 10 μg/disc, listed as Flumequine): resistance |
| O=C1OCCN1/N=C/c1ccc([N+](=O)[O-])o1 [furazolidone, Furazolidone] | 0 | strong | resistance of Lactobacillus paracasei viro-01 to the antibiotic (content 10 μg/disc, listed as Furazolidone): resistance |
| NC[C@H]1O[C@H](O[C@H]2[C@H](O)[C@@H](O[C@H]3O[C@H](CO)[C@@H](O)[C@H](N)[C@H]3O)[C@H](N)C[C@@H]2N)[C@H](O)[C@@H](O)[C@@H]1O [kanamycin, Kanamycin] | 9 | – | – |
| CC1=C(C(=O)O)N2C(=O)[C@@H](NC(=O)[C@H](N)c3ccccc3)[C@H]2SC1 [sephalexin, Cephalexin] | 0 | strong | resistance of Lactobacillus paracasei viro-01 to the antibiotic (content 10 μg/disc, listed as Cephalexin): resistance |
| CN[C@@H]1[C@H](O)[C@H](NC)[C@H]2O[C@@]3(O)C(=O)C[C@@H](C)O[C@H]3O[C@@H]2[C@H]1O [spectinomycin, Spectinomycin] | 0 | strong | resistance of Lactobacillus paracasei viro-01 to the antibiotic (content 10 μg/disc, listed as Spectinomycin): resistance |
| CN(C)[C@@H]1C(O)=C(C(N)=O)C(=O)[C@@]2(O)C(O)=C3C(=O)c4c(O)cccc4[C@@](C)(O)[C@H]3C[C@@H]12 [tetracycline, Tetracycline] | – | – | growth-inhibition zone (content 30 μg/disc): 30 mm |
| C=C[C@]1(C)C[C@@H](OC(=O)CSCCN(CC)CC)[C@]2(C)[C@H](C)CC[C@]3(CCC(=O)[C@H]32)[C@@H](C)[C@@H]1O [tiamulin, Tiamulin] | 28 | none | resistance of Lactobacillus paracasei viro-01 to the antibiotic (content 10 μg/disc, listed as Tiamulin): no resistance |
| Gentamycin | 13 | moderate | resistance of Lactobacillus paracasei viro-01 to the antibiotic (content 10 μg/disc, listed as Gentamycin): moderate resistance |
| Neomycin | 13 | moderate | resistance of Lactobacillus paracasei viro-01 to the antibiotic (content 10 μg/disc, listed as Neomycin): moderate resistance |
